Results reported in US20230133672A1, “FUSION POLYPEPTIDE COMPRISING GDF15 AND POLYPEPTIDE REGION CAPABLE OF O-GLYCOSYLATION” (LG CHEM, LTD., priority 2019, published 2023).

How the values were obtained:
[1] = Repeated administration: feed intake in DIO mice; type: in vivo, Mouse, C57BL/6J-DIO; design: unit not given here
Experimental: (§1) In addition, after administering the test substances into mice, the daily feed intake was measured, and the feeding amount was measured using an electronic scale for each breeding box, and the remaining amount was measured to calculate the daily feed intake. In case of an individual that gnawed heavily on heed, it was excluded from the measurement.
(§2) All the experimental results obtained in the present example were expressed as mean±standard error and tested using Prism5 (version 5.01). One-way analysis of variance (ANOVA) was performed on all data, and when significance was observed, Dunnett's test was performed to find out the test groups with a significant difference from the control group (significance level: two-sided 5% and 1%, 0.1%).
(§3) Except for the administration dose, animal number and administration cycle, most of the test processes were the same as in Example 2.1.1 above.
(§4) The test substances were administered twice a week (Days 0, 4, 7, 11, 14, 18, 21, 25) for a total of 8 times. For comparison, the control group in which the control substance Semaglutide was administered every day was prepared, and the comparison group in which Semaglutide was administered every day was administered once a day daily, and all the administration was progressed from 9 AM.

[2] = Single administration: body weight change in DIO mice; type: in vivo, Mouse, C57BL/6J-DIO; conditions: for Body Weight (Group, % of initial): daily s.c. injection, mean
Experimental: (§5) The pharmacological effect of the fusion polypeptides produced and purified in Example 1 above was tested in mice (C57BL/6J, 6-week-old, male, 100 mice; Raonbio).
(§6) In the present example, DI0 mouse model (Mouse, C57BL/6J-DIO, male, 100 mice, 14-week-old (obesity feed feeding for 8 weeks)) in which obesity was induced by feeding a high-fat diet into the C57BL/6J mice for 8 weeks was used.
(§7) The administration of the test substances HT-ID1-GDF15, HT-ID2-GDF15, and HT-ID3-GDF15 and the control substance Semaglutide (Bachem) was conducted from the next day after group separation, and the administration time was performed at 9 AM every day. Subcutaneous administration was conducted for all the control substance and test substances. For the administration route of the control substance and test substances, subcutaneous administration was selected depending on the clinically scheduled administration route.
(§8) For all the control substance and test substances, the amount of the administration solution was set to 5 mL/kg and the administration liquid by individual was calculated on the basis of the recently measured body weight and it was administered by subcutaneous injection once on the start day of the test using a disposable syringe (1 mL). The test substances were administered only once. For comparison, the control group in which the control substance Semaglutide was administered was prepared, and the comparison group in which Semaglutide was administered was administered once a day, and all the administration was progressed from 9 AM.
As for the observation, measurement and test schedule for the test groups, the administration start date was set to Day 0, and 7 days from the administration start date were set to one week of administration.
The body weight of each mouse was measured on the day of the start of administration of the test substances (before administration), and thereafter, the body weight was measured every day (measured up to 9 days), and the amount of the administration solution of the test substances was determined on the basis of the most recently measured body weight.
as §2

[3] = Single administration: feed intake in DIO mice; type: in vivo, Mouse, C57BL/6J-DIO; design: unit not given here
Experimental: as §5, §6, §7, §8, §1, §2

[4] = Repeated administration: body weight change in DIO mice; type: in vivo, Mouse, C57BL/6J-DIO
Experimental: The body weight of each mouse was measured on the day of the start of administration of the test substances (before administration), and thereafter, the body weight was measured every day ([…]), and the amount of the administration solution of the test substances was determined on the basis of the most recently measured body weight.
as §2, §3, §4

[5] = Pharmacokinetic test, subcutaneous administration to SD rats (serum ELISA, Human GDF15 Immunoassay); type: in vivo; conditions: 2 mg/kg subcutaneous
Experimental: For evaluation of pharmacokinetic characteristics when each fusion polypeptide was subcutaneously administered to rats, the fusion polypeptides HT-ID1-GDF15, HT-ID2-GDF15 and HT-ID3-GDF15 were subcutaneously administered into SD rats (Koatech, male, 7-week-old, about 250 g; n=3 each; test group) in an amount of 2 mg/kg, respectively, and about 200 μl of blood was collected through the caudal vein at a predetermined time. The blood collection time was performed before administration, and 1, 2, 4, 8, 24, 48, 72, 96, 168, 240 and 336 hours after administration. As the control group for comparison of pharmacokinetic characteristics, GDF15 (R&D Systems) was subcutaneously administered in an amount of 2 mg/kg by the same method to prepare a GDF15 administration group.
After administering into SD Rats as above, blood collected by time-point was centrifuged to obtain serum, and ELISA was performed using Human GDF15 Immunoassay (SGD150, R&D Systems), and the concentration in the serum was measured depending on the time of each polypeptide.

Semaglutide [reference compound]
Feed intake, Mean ([1]; Day 1, 3 nmol/kg once a day): 2.9
Feed intake, Mean ([1]; Day 2, 3 nmol/kg once a day): 0.7
Feed intake, Mean ([1]; Day 3, 3 nmol/kg once a day): 1.3
Feed intake, Mean ([1]; Day 4, 3 nmol/kg once a day): 1.4
Feed intake, Mean ([1]; Day 5, 3 nmol/kg once a day): 1.7
Feed intake, Mean ([1]; Day 6, 3 nmol/kg once a day): 1.5
Feed intake, Mean ([1]; Day 7, 3 nmol/kg once a day): 1.6
Feed intake, Mean ([1]; Day 8, 3 nmol/kg once a day): 1.9
Feed intake, Mean ([1]; Day 9, 3 nmol/kg once a day): 2.0
Feed intake, Mean ([1]; Day 10, 3 nmol/kg once a day): 2.3
Feed intake, Mean ([1]; Day 11, 3 nmol/kg once a day): 2.2
Feed intake, Mean ([1]; Day 12, 3 nmol/kg once a day): 3.2
Feed intake, Mean ([1]; Day 13, 3 nmol/kg once a day): 2.2
Feed intake, Mean ([1]; Day 14, 3 nmol/kg once a day): 2.5
Feed intake, Mean ([1]; Day 15, 3 nmol/kg once a day): 2.5
Feed intake, Mean ([1]; Day 16, 3 nmol/kg once a day): 2.2
Feed intake, Mean ([1]; Day 17, 3 nmol/kg once a day): 2.4
Feed intake, Mean ([1]; Day 18, 3 nmol/kg once a day): 2.2
Feed intake, Mean ([1]; Day 19, 3 nmol/kg once a day): 2.6
Feed intake, Mean ([1]; Day 20, 3 nmol/kg once a day): 2.6
Feed intake, Mean ([1]; Day 21, 3 nmol/kg once a day): 2.5
Feed intake, Mean ([1]; Day 22, 3 nmol/kg once a day): 2.9
Feed intake, Mean ([1]; Day 23, 3 nmol/kg once a day): 2.0
Feed intake, Mean ([1]; Day 24, 3 nmol/kg once a day): 2.4
Feed intake, Mean ([1]; Day 25, 3 nmol/kg once a day): 2.9
Feed intake, Mean ([1]; Day 26, 3 nmol/kg once a day): 2.4
Feed intake, Mean ([1]; Day 27, 3 nmol/kg once a day): 2.4
Feed intake, Mean ([1]; Day 28, 3 nmol/kg once a day): 2.7
body weight loss effect ([2]; 3 nmol/kg daily s.c. administration): body weight loss effect was continuously shown from Day 1 after administration
Body Weight (Group, % of initial) ([2]; Day 0, 3 nmol/kg): 100 % of initial
Body Weight (Group, % of initial) ([2]; Day 1, 3 nmol/kg): 94 % of initial
Body Weight (Group, % of initial) ([2]; Day 2, 3 nmol/kg): 91 % of initial
Body Weight (Group, % of initial) ([2]; Day 3, 3 nmol/kg): 90 % of initial
Body Weight (Group, % of initial) ([2]; Day 4, 3 nmol/kg): 87 % of initial
Body Weight (Group, % of initial) ([2]; Day 5, 3 nmol/kg): 87 % of initial
Body Weight (Group, % of initial) ([2]; Day 6, 3 nmol/kg): 85 % of initial
Body Weight (Group, % of initial) ([2]; Day 7, 3 nmol/kg): 86 % of initial
Body Weight (Group, % of initial) ([2]; Day 8, 3 nmol/kg): 83 % of initial
Body Weight (Group, % of initial) ([2]; Day 9, 3 nmol/kg): 85 % of initial
Feed intake, Mean ([3]; Day 0, 3 nmol/kg Daily Inj.): 3.7
Feed intake, Mean ([3]; Day 1, 3 nmol/kg Daily Inj.): 2.1
Feed intake, Mean ([3]; Day 2, 3 nmol/kg Daily Inj.): 3.3
Feed intake, Mean ([3]; Day 3, 3 nmol/kg Daily Inj.): 2.8
Feed intake, Mean ([3]; Day 4, 3 nmol/kg Daily Inj.): 2.3
Feed intake, Mean ([3]; Day 5, 3 nmol/kg Daily Inj.): 2.9
Feed intake, Mean ([3]; Day 6, 3 nmol/kg Daily Inj.): 2.7
Feed intake, Mean ([3]; Day 7, 3 nmol/kg Daily Inj.): 3.2
Feed intake, Mean ([3]; Day 8, 3 nmol/kg Daily Inj.): 2.4
Feed intake, Mean ([3]; Day 9, 3 nmol/kg Daily Inj.): 3.7
Body Weight, Mean ([4]; Day 0, 3 nmol/kg once a day): 100.0 % of initial
Body Weight, Mean ([4]; Day 1, 3 nmol/kg once a day): 93.9 % of initial
Body Weight, Mean ([4]; Day 2, 3 nmol/kg once a day): 92.6 % of initial
Body Weight, Mean ([4]; Day 3, 3 nmol/kg once a day): 90.4 % of initial
Body Weight, Mean ([4]; Day 4, 3 nmol/kg once a day): 88.4 % of initial
Body Weight, Mean ([4]; Day 5, 3 nmol/kg once a day): 66.2 % of initial
Body Weight, Mean ([4]; Day 6, 3 nmol/kg once a day): 64.1 % of initial
Body Weight, Mean ([4]; Day 7, 3 nmol/kg once a day): 82.6 % of initial
Body Weight, Mean ([4]; Day 8, 3 nmol/kg once a day): 61.9 % of initial
Body Weight, Mean ([4]; Day 9, 3 nmol/kg once a day): 80.7 % of initial
Body Weight, Mean ([4]; Day 10, 3 nmol/kg once a day): 80.3 % of initial
Body Weight, Mean ([4]; Day 11, 3 nmol/kg once a day): 80.3 % of initial
Body Weight, Mean ([4]; Day 12, 3 nmol/kg once a day): 79.1 % of initial
Body Weight, Mean ([4]; Day 13, 3 nmol/kg once a day): 76.8 % of initial
Body Weight, Mean ([4]; Day 14, 3 nmol/kg once a day): 76.7 % of initial
Body Weight, Mean ([4]; Day 15, 3 nmol/kg once a day): 78.1 % of initial
Body Weight, Mean ([4]; Day 16, 3 nmol/kg once a day): 78.3 % of initial
Body Weight, Mean ([4]; Day 17, 3 nmol/kg once a day): 77.2 % of initial
Body Weight, Mean ([4]; Day 18, 3 nmol/kg once a day): 76.7 % of initial
Body Weight, Mean ([4]; Day 19, 3 nmol/kg once a day): 77.1 % of initial
Body Weight, Mean ([4]; Day 20, 3 nmol/kg once a day): 76.1 % of initial
Body Weight, Mean ([4]; Day 21, 3 nmol/kg once a day): 76.8 % of initial
Body Weight, Mean ([4]; Day 22, 3 nmol/kg once a day): 75.9 % of initial
Body Weight, Mean ([4]; Day 23, 3 nmol/kg once a day): 75.6 % of initial
Body Weight, Mean ([4]; Day 24, 3 nmol/kg once a day): 76.0 % of initial
Body Weight, Mean ([4]; Day 25, 3 nmol/kg once a day): 76.3 % of initial
Body Weight, Mean ([4]; Day 26, 3 nmol/kg once a day): 76.5 % of initial
Body Weight, Mean ([4]; Day 27, 3 nmol/kg once a day): 76.2 % of initial
Body Weight, Mean ([4]; Day 28, 3 nmol/kg once a day): 75.7 % of initial

rhGDF15: GDF15 (R&D Systems), not fused, control group for comparison of pharmacokinetic characteristics
half-life [5]: 19 h
AUCextp (%) [(AUCinf − AUClast)/AUCinf]*100 ([5]; serum): 0.463%
AUClast ([5]; serum): 4860 ng·h/mL
Cmax (maximum concentration in blood) ([5]; serum): 443 ng/mL
Tmax (reaching time to maximum concentration in blood) ([5]; serum): 1 h
t1/2 (loss half-life) ([5]; serum): 19.0 h
AUCinf ([5]; serum, extrapolated to infinity): 4880 ng·h/mL
